Measurements published in article PMC10272112 (Nature Communications, 2023).

Assays:
[1] = target: T1, HDAC6-catalytic domain 2 (HDAC6CD2) (Homo sapiens, UniProt Q9UBN7); test: NanoBRET intracellular target engagement assay; format: cell-based
T1 construct: HDAC6-catalytic domain 2 (HDAC6CD2); expressed in transfected cells
T1 sequence (Q9UBN7 482-800 limits assumed): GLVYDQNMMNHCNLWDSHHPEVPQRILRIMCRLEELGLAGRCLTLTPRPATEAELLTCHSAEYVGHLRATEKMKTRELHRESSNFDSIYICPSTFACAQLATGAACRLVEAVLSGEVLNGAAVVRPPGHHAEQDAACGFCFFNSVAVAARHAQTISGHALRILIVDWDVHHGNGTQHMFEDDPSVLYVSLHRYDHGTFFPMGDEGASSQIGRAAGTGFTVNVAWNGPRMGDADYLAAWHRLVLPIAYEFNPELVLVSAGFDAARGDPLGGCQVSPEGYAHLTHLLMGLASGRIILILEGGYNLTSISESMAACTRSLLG
Procedure: For the production of transfected HeLa mono-clones stably expressing HDAC-nanoBRET fusion proteins of HDAC10 and HDAC6-catalytic domain 2 (HDAC6CD2), plasmids expressing a fusion of HDAC10 with nanoluciferase were obtained from Promega (N2170). HeLa cells (0.75 × 10^6) were seeded in a 6 cm dish and were transfected with a mix of 10 μg plasmid and 3 μL Fugene in 200 μL OptiMEM after 24 h. The intracellular target engagement assay on HDAC10 and HDAC6CD2 was performed using the NanoBRET™ Target Engagement Intracellular HDAC Assay (Promega N2081 and N2090) as described by the kit manufacturer in a 96-well plate (Corning 3600) format with 2 × 10^4 cells per well and a tracer concentration of 0.3 μM. Inhibitors were dosed with a D300e Digital Dispenser (Tecan). DMSO concentrations were normalized to 0.5% for all wells. After dosing, assay plates were shaken at 800 rpm and incubated at 37 °C for 2 h followed by measurement of 450 nm and 650 nm luminescence (80 nm bandwidth) at room temperature with a CLARIOstar (BMG Labtech) plate reader 2 min after NanoLuc substrate addition.

DDX3X AcK118 = test: DDX3X acetylation detection by western blot, CBP-HA transfected HEK293T; format: cell-based
Procedure: (§1) 0.2 × 10^6 HEK293T (ATCC: CRL-3216) cells were transfected with pcDNA 3.1-HA CBP plasmids (1 μg/well for the 6-well plate) by FuGENE. After 2 days, cells were treated with ACY-738, lipoic acid, and lipoamide for 7 h, then were washed by ice-cold PBS and lysed in Triton lysis buffer (50 mM Tris, pH 8.0, 150 mM NaCl, 1 mM EDTA, 0.1% TritonX-100 and complete EDTA-free protease inhibitors (Roche)) for analysis. To detect protein acetylation, 0.2 μM Trichostatin A and 5 mM nicotinamide were added to PBS for washing, and 10 μM trichostatin A, 10 mM nicotinamide, and 50 mM sodium butyrate were added to Triton lysis buffer.

α-Tubulin AcK40 = test: α-tubulin acetylation detection by western blot, CBP-HA transfected HEK293T; format: cell-based; details: for concentration showing substantial increase of α-Tubulin AcK40 acetylation: 7 h drug incubation; for α-Tubulin AcK40 acetylation level relative to control: HEK293T
Procedure: as §1

TBL1XR1 (Homo sapiens) = test: Chemoproteomic competition pulldown assay (co-competed NCoR partner); format: binding; details: iQ, SW620 lysate
Sequence of TBL1XR1 (Homo sapiens) (O15379 whole entry): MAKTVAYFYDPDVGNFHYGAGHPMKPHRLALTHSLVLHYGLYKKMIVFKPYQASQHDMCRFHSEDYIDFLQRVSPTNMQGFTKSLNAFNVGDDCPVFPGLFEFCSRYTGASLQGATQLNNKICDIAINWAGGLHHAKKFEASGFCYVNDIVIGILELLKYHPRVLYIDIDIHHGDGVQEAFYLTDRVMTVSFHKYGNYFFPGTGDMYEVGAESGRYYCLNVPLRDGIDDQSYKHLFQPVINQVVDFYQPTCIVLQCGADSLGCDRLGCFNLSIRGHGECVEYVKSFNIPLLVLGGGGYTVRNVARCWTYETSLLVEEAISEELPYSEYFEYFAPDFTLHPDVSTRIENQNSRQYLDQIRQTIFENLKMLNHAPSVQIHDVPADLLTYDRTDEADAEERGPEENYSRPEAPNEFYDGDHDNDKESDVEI
Sequence of TBL1XR1 (Homo sapiens) (Q9BZK7 2-514, further chain): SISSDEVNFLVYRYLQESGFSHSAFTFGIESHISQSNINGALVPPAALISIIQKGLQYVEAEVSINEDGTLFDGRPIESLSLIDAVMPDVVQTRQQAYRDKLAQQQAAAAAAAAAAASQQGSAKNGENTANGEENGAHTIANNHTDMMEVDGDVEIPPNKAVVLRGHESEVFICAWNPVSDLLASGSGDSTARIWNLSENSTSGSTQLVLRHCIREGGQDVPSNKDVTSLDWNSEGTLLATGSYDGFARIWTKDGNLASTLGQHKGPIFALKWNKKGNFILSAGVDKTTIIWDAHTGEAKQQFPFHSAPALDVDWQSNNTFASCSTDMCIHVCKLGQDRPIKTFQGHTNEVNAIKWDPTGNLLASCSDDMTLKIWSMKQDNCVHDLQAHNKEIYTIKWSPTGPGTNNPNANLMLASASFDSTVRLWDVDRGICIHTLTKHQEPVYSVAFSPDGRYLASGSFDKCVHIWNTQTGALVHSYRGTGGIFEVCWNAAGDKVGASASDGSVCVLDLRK
Procedure: To identify proteins directly bound by lipoic acid, we employed a chemoproteomic competition assay. Briefly, (R/S)-LA was immobilized on sepharose beads via an amidation reaction to form an affinity matrix (abbreviated as iL; Fig. 1a). This affinity matrix can be incubated with cell lysate to pull down potential LA or LM target proteins and identify these targets via bottom-up proteomics. In a competition assay, free LA or LM were incubated with lysate at different concentrations before pulling down and quantifying target proteins. […] (Fig. 1b, see “Methods” for details). […] The lysate buffer used in this assay contains 1 mM DTT to mimic the intracellular reductive milieu and to reduce lipoic acid and LM. […] Additional competition assays performed in lung adenocarcinoma cell A549 lysate also identified HDAC1, HDAC2, and HDAC6 as targets (Supplementary Fig. 1b). Amongst the three cell lines tested, HDACs were the only confidently identified targets across the 1500–3000 proteins quantified in these assays. […] We validated the results by analogous pulldown competition assays using two other affinity matrices prepared via the immobilization of either the HDAC inhibitor Quisinostat (iQ) and an analog of the class IIa HDAC inhibitor Bürli’s 31[14] (iC)[12]. We have previously shown that these affinity matrices specifically bind to the active sites of HDACs and have used them for HDACi selectivity profiling. Indeed, binding of (R/S)-LA and (R/S)-LM to HDAC1, HDAC2, HDAC3, HDAC6, and, to a lesser extent, HDAC8 was confirmed in these assays (Supplementary Fig. 1c, d). No binding to class IIa HDACs or the recently discovered common HDAC inhibitor off-target MBLAC2 was observed (Supplementary Fig. 1e)[12]. […] This observation might reflect electrostatic repulsion between the HDAC10 active site gate-keeper glutamic acid residues[15],[16] and the terminal carboxylic acid of LA.
To assess the degree of protein depletion from lysates by the affinity matrix, a second pulldown (PDPD) with fresh beads was performed using the unbound protein fraction from the vehicle control flow through. The beads were washed (1 × 1 mL of lysis buffer without inhibitors and only 0.4% Igepal, 2 × 2 mL of lysis buffer without inhibitors and only 0.2% Igepal), and captured proteins were denatured with 8 M urea buffer, alkylated with 55 mM chloroacetamide and digested with Trypsin according to standard procedures. The resulting peptides were desalted on a C18 filter plate (Sep-Pak® tC18 µElution Plate, Waters), vacuum dried, and stored at −20 °C until LC–MSMS measurement.
For the competition assays, relative binding was calculated based on the protein intensity ratio to the DMSO control for every single inhibitor concentration. EC50 values were derived from a four-parameter log-logistic regression with variable slope (constrain: bottom > 0). The obtained EC50 values were multiplied with a protein-dependent correction factor (cf), resulting in the apparent Kd value (Kd^app). The correction factor is determined by calculating the ratio of the protein intensity of two consecutive pulldowns of the vehicle control sample[13]. Targets of the inhibitors were annotated manually according to published procedures[12],[46],[47]. […] Additionally, the number of unique peptides and MSMS counts per condition were taken into account. Positive target binding across several independent experiments performed with different cell lysates further substantiated our confidence for a true positive drug-target binding event.

Compound | potency of intracellular target engagement and HDAC substrate hyperacetylation ([1]; peer review response) [µM] | DDX3X AcK118 acetylation level relative to control (DDX3X AcK118; 1 mM) [fold] | DDX3X AcK118 acetylation level relative to control (DDX3X AcK118; .5 (mM)) [fold] | concentration showing substantial increase of α-Tubulin AcK40 acetylation (α-Tubulin AcK40) [µM] | α-Tubulin AcK40 acetylation level relative to control (α-Tubulin AcK40; 1 mM) [fold] | α-Tubulin AcK40 acetylation level relative to control (α-Tubulin AcK40; .5 (mM)) [fold] | relative binding vs DMSO (TBL1XR1 (Homo sapiens); log10 M -3.52288) | relative binding vs DMSO (TBL1XR1 (Homo sapiens); log10 M -4) | relative binding vs DMSO (TBL1XR1 (Homo sapiens); log10 M -4.52288) | relative binding vs DMSO (TBL1XR1 (Homo sapiens); log10 M -5) | relative binding vs DMSO (TBL1XR1 (Homo sapiens); log10 M -5.52288) | relative binding vs DMSO (TBL1XR1 (Homo sapiens); log10 M -6) | relative binding vs DMSO (TBL1XR1 (Homo sapiens); log10 M -6.52288) | relative binding vs DMSO (TBL1XR1 (Homo sapiens); log10 M -7) | intracellular binding to HDAC6 ([1]; HeLa cells) | IC50 ([1]; HeLa cells, 2 h, read-out: concentration of half maximal HDAC6 inhibition) [µM] | α-Tubulin AcK40 acetylation level relative to control (α-Tubulin AcK40; 1 mM, listed as LM) [fold]
O=C(O)CCCCC1CCSS1 (racemic) [(R/S)-LA, (R/S)-lipoic acid] | 50 to 300 | 2.4 | 1.8 | 50 | 3.4 | 2 | 0.2899 | 0.4212 | 0.5577 | 0.7209 | 0.9534 | 0.8832 | 1.088 | 1.002 |  |  | 
NC(=O)CCCCC1CCSS1 (racemic) [(R/S)-LM, (R/S)-lipoamide] |  | 2.4 | 2.1 | 50 | 4.0 | 2.5 | 0.1308 | 0.176 | 0.3741 | 0.8567 | 0.9248 | 0.9851 | 0.8544 | 0.9921 | dose-dependent intracellular binding | 35 | 4
